These results are taken from publication PMC6424957 (Scientific Reports, 2019).

The nature of test [1]: Oxygen radical absorbance capacity assay (ORAC-FL). The settings on record: ORAC-FL, AAPH, fluorescein, 37 °C, pH 7.4; Trolox taken as 1.
Method: The ability of the conjugates to reduce the amount of peroxyl radicals as another characteristic of the antioxidant activity of the compounds was determined using the oxygen radical absorbance capacity by fluorescence (ORAC-FL) method using fluorescein (FL) as a fluorescent probe. The method is based on measuring the decrease in the intensity of fluorescence with time, which characterizes the degree of decay of the fluorescent probe under the influence of peroxyl radicals. In the presence of antioxidants, the degree of decay of the fluorescent probe decreases and, accordingly, the fluorescence time increases.
The ability of compounds to scavenge peroxyl radicals was characterized by the value of the Trolox equivalent (TE, μmol of Trolox per μmol of the tested compound), which is equal to the ratio of the Trolox concentration to the tested compound concentration having the same fluorescence intensity. Peroxyl radical scavenging capacity of Trolox is taken as one (1)[67],[68].
2,2′-Azobis-(amidinopropane) dihydrochloride (AAPH), (±)-6-hydroxy-2,5,7,8-tetramethylchromane-2-carboxylic acid (Trolox) and fluorescein (FL) were purchased from Sigma-Aldrich. The reaction was carried out at 37 °C in 75 mM K,Na phosphate buffer (pH 7.4), and the final reaction mixture was 200 µL. The tested compounds and Trolox standard were dissolved in DMSO to 10 mM and further diluted in 75 mM K,Na phosphate buffer (pH 7.4). […] The blank was composed of 20 µL 75 mM K,Na phosphate buffer (pH 7.4) containing 2% (v/v) DMSO, 120 µL FL and 60 µL AAPH, and was added in each assay. Antioxidant (the test compound or Trolox, 20 µL) and FL (120 µL, final concentration: 70 nM) solutions were placed in a black 96-well microplate and were pre-incubated for 15 min at 37 °C. AAPH solution (60 µL, final concentration 12 mM) was then added rapidly using a multichannel pipette. The fluorescence was recorded every minute for 100 min. A Trolox standard curve was also obtained in each assay. All reactions were carried out in triplicate and at least three different assays were performed for each sample.
Antioxidant curves (fluorescence vs. time) were first normalized to the curve of the blank (without antioxidant) corresponding to the same assay, and the area under the fluorescence decay curve (AUC) was calculated. The net AUC corresponding to a sample was calculated by subtracting the AUC corresponding to the blank. Regression equations were calculated by plotting the net AUC against the antioxidant concentration. The ORAC value was obtained by dividing the slope of the latter curve by the slope of the Trolox curve obtained in the same assay. […] Data were expressed as means ± SEM.
Test [2] has as its target T1, human erythrocyte acetylcholinesterase (AChE) (Homo sapiens, UniProt P22303).
T1 construct: Acetylcholinesterase (AChE, EC 3.1.1.7, from human erythrocyte); purchased Sigma-Aldrich (Germany); host or cells: human erythrocytes
The test can be described thus: biochemical. It is filed as biochemical. The following applies: mean ± SEM, n ≥ 3. Here is the method: (§1) Acetylcholinesterase (AChE, EC 3.1.1.7, from human erythrocyte and E. electricus (EeAChE) (type VI-S), butyrylcholinesterase (BChE, EC 3.1.1.8, from equine serum), carboxylesterase (CaE, EC 3.1.1.1, from porcine liver), acetylthiocholine iodide (ATCh), butylthiocholine iodide (BTCh), 5,5′-dithiobis-(2-nitrobenzoic acid) (DTNB), 4-nitrophenyl acetate (4-NPA), were purchased from Sigma-Aldrich (Germany).
(§2) AChE and BChE activities were measured by the Ellman method as described earlier. The assay solution consisted of 0.1 M K/Na phosphate buffer pH 7.5, 25 °C with the addition of 0.33 mM DTNB, 0.02 unit/mL of AChE or BChE, and 1 mM of substrate (ATCh or BTCh, respectively). The assays were carried out with a reagent blank containing all components except AChE or BChE to account for non-enzymatic hydrolysis of substrate. In addition, an enzyme blank was included that contained all components except substrate to account for non-substrate sulfhydryl groups. […] The assay solution consisted of 0.1 M K/Na phosphate buffer pH 8.0, 25 °C with the addition of 1 mM 4-nitrophenyl acetate and 0.02 unit/mL of CaE. Assays were carried out with a blank containing all components except CaE.
(§3) The test compounds were dissolved in DMSO; the incubation mixture contained 2% (v/v) of the solvent. […] The test compounds were added to the assay solution and preincubated at 25°C with the enzymes for 5 min followed by the addition of substrate. A parallel control was made for the assay solution with no inhibitor. […] Each experiment was performed three times. The results were expressed as the mean ± SEM. The reaction rates in the presence and absence of inhibitor were compared, and the percent of residual enzyme activity due to the presence of test compounds was calculated.

Test [3] has as its target T2, equine serum butyrylcholinesterase (BChE) (Equus caballus, UniProt P81908).
T2 construct: butyrylcholinesterase (BChE, EC 3.1.1.8, from equine serum); purchased Sigma-Aldrich (Germany); host or cells: equine serum
The test can be described thus: biochemical. It is filed as biochemical. The following applies: mean ± SEM, n ≥ 3. The procedure: as §1, §2, §3

The target in test [4] is T3, Electrophorus electricus AChE (EeAChE) (Electrophorus electricus, UniProt O42275).
T3 construct: from human erythrocyte and E. electricus (EeAChE) (type VI-S); purchased Sigma-Aldrich (Germany) type VI-S; host or cells: Electrophorus electricus tissue
T3 sequence (O42275 24-633): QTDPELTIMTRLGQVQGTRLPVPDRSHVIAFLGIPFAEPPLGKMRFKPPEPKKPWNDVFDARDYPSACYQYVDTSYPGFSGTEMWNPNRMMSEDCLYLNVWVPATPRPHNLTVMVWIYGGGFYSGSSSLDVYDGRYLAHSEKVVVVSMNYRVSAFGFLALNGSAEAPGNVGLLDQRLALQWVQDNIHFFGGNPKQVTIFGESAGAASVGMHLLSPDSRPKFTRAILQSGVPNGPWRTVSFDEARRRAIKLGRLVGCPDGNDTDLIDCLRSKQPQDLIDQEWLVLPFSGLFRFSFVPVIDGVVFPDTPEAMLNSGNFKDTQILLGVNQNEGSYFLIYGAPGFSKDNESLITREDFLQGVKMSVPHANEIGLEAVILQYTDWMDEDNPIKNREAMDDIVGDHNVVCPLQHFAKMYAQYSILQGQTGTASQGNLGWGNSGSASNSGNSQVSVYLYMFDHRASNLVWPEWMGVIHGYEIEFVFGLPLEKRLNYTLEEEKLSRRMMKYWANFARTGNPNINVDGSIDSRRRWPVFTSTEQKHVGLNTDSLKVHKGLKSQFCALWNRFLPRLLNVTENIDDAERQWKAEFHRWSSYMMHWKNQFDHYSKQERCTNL
The test can be described thus: biochemical. It is filed as biochemical. Here is the method: as §1, §2, §3

The nature of test [5]: ABTS radical cation scavenging assay. The settings on record: 1 h incubation; for ABTS·+ scavenging activity, TEAC value: Trolox equivalent antioxidant capacity, ratio of slopes compound/Trolox. Here is the method:
This assay is based on the production of a stable dark green ABTS cation-radical (ABTS^·+) by incubating ABTS ([2,2′-azino-bis(3-eth-ylbenzothiazoline-6-sulfonic acid diammonium salt)) with potassium persulfate. […] The ABTS radical-scavenging activity of the compounds was measured according to an established method[66] with some modifications, at 30 °С in the dark; incubation time was 1 hour. […] The results were expressed as TEAC values (Trolox equivalent antioxidant capacity) calculated by dividing the slope of ABTS^·+ concentration decrease versus the antioxidant concentration by the slope of the Trolox plot.
Radical scavenging activity of the compounds was assessed using an ABTS radical decolorization assay[66] with some minor modifications. ABTS (2,2′-azino-bis-(3-ethylbenzothiazoline-6-sulfonic acid) diammonium salt) was purchased from TCI (Tokyo, Japan); potassium persulfate (di-potassium peroxodisulfate) and Trolox (6-hydroxy-2,5,7,8-tetramethychroman-2-carboxylic acid were obtained from Sigma-Aldrich Chemical Co. (St. Louis, MO, USA). Ethanol was HPLC grade. Aqueous solutions were prepared using deionized water.
Trolox was used as the antioxidant standard. A 5 mM solution of Trolox was prepared in DMSO for use as stock. Fresh working solutions of known concentrations (1–100 μM) were prepared on the day of experiments and used for calibration and as positive controls for ABTS radical cation (ABTS^•+) scavenging activity. ABTS was dissolved in deionized water to a 7 mM concentration. […] Fresh working ABTS^•+ solution was prepared for each assay.
The radical scavenging capacity of the compounds was analyzed by mixing 10 μl of compound with 240 μl of ABTS^•+ working solution. […] Ethanol blanks were run in each assay. Values were obtained from three replicates of each sample and three independent experiments.
Antioxidant capacity as a Trolox equivalent (TEAC values) was determined as the ratio between the slopes obtained from the linear correlation for concentrations of test compounds and Trolox with absorbance of ABTS radical.

Test [6] has as its target T4, porcine liver carboxylesterase (CaE) (Sus scrofa, UniProt Q29550).
T4 sequence (Q29550 19-566): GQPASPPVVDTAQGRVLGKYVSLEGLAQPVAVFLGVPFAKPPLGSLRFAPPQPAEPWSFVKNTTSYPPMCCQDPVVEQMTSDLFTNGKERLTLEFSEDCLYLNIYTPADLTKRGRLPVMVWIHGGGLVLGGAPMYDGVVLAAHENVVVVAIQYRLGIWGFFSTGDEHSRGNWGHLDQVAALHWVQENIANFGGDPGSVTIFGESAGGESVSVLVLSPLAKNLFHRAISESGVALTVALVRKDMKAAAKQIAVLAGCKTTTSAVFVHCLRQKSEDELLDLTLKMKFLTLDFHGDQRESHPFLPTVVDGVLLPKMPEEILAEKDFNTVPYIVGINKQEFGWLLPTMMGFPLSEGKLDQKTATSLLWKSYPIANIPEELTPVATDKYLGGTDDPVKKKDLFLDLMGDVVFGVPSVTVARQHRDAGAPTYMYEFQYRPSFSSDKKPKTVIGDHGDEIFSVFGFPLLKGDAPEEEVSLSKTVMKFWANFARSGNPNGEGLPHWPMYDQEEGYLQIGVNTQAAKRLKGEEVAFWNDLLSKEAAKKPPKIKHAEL
The test can be described thus: CaE inhibition (4-nitrophenyl acetate hydrolysis). The test is classed as biochemical. The following applies: 20 µM, mean ± SEM, n ≥ 3, n.a. = not active at 20 µM. The procedure:
as §1, §2, §3

Test [7] deals with isolated rat liver mitochondria. The test can be described thus: Inhibition of iron-induced lipid peroxidation (TBARs). The settings on record: read-out: IC50 of Fe3+-induced LP, LP induced by 0.5 mM Fe3+, mean ± SEM, n ≥ 3.
Test [8] deals with T5, peripheral anionic site (PAS) of EeAChE (Electrophorus electricus, UniProt O42275).
T5 construct: from human erythrocyte and E. electricus (EeAChE) (type VI-S); purchased Sigma-Aldrich (Germany) type VI-S; host or cells: Electrophorus electricus tissue
T5 sequence (O42275 24-633): as the sequence (O42275 24-633) above
The test is classed as binding. The following applies: EeAChE 7 μM, propidium iodide 8 μM. From the text: The fluorescent assay used to evaluate competitive propidium iodide displacement from the PAS of AChE is commonly used as primary screening method of AChE pro-aggregation activity inhibitors. Propidium iodide is a selective ligand for the PAS of AChE responsible for Aβ binding.
EeAChE was used owing to its high degree of purification, high activity, and lower cost than human AChE. […] The fluorescence intensity of propidium iodide bound with AChE increases several times.
To determine the degree of displacement (% displacement) of propidium iodide from the PAS of AChE, EeAChE (final concentration 7 μM) was incubated with the test compound at a concentration of 3 and 20 μM in 1 mM Tris-HCl buffer pH 8.0, 25 °C for 15 min. Then, propidium iodide solution (final concentration 8 μM) was added, the samples were incubated for 15 min and the fluorescence spectrum (530 nm (excitation) and 600 nm (emission)) was taken. Donepezil and tacrine were used as reference compounds. The blank contained propidium iodide of the same concentration in 1 mM Tris-HCl buffer pH 8.0. The measurements were carried out in triplicate on a microplate reader FLUOStar Optima (BMG Labtech Germany).
The degree of displacement (% displacement) of propidium iodide from the peripheral anionic site of AChE was calculated by the following formula: %Displacement=100−(IFAChE+Propidium+inhibitor/IFAChE+Propidium)[…], where IFAChE + Propidium is the fluorescence intensity of the propidium associated with AChE in the absence of the test compound (taken as 100%), and IFAChE + Propidium + inhibitor is the fluorescence intensity of the propidium associated with AChE in the presence of the test compound.

Molecules are shown by their SMILES. Some results are limits rather than exact numbers.

T2 sequence (P81908 whole entry): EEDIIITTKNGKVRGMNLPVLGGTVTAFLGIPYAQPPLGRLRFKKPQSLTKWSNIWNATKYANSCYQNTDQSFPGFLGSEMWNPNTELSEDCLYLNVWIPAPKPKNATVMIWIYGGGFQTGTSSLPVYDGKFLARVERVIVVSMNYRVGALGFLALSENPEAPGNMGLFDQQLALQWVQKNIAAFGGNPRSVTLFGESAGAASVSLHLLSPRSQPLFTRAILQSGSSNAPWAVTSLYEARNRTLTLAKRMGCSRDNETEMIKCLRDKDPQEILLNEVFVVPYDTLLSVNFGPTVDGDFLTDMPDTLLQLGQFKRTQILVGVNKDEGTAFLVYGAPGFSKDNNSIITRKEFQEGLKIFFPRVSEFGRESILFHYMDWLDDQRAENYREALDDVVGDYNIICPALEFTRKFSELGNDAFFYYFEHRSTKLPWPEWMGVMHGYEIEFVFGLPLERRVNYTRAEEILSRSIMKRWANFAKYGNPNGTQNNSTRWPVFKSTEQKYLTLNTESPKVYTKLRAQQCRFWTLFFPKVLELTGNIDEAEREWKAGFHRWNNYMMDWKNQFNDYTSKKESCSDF
T1 sequence (P22303 32-617 isoform P22303-2 limits assumed): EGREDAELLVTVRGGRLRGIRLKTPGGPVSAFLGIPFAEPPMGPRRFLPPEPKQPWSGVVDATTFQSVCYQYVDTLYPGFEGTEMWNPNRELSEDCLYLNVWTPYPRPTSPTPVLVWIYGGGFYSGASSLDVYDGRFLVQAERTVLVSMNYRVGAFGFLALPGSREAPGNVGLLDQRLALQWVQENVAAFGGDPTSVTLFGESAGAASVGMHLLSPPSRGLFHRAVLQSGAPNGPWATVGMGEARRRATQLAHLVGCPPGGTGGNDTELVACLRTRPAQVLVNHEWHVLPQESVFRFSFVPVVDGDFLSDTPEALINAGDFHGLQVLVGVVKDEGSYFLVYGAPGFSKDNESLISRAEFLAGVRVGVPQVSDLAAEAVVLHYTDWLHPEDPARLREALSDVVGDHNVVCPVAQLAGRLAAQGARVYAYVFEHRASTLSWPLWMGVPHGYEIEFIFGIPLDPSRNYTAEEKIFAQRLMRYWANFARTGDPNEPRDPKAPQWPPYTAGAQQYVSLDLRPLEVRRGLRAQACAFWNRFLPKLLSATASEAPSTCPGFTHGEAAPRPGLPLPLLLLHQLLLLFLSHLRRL

As for `Cc1ccc2c(c1)c1c(n2CCc2ccc(C)nc2)CCN(C)C1` [Dimebon, reference compound], in test [1], the “ORAC TE value” was 1.07 ± 0.08 µmol Trolox/ µmol comp. The IC50 in test [2] is 36.3 ± 3.59 µM; in test [3] it was 5.76 ± 0.51 µM; in test [4], 32.4 ± 3.5 µM; in test [7], > 30 µM. Moreover, the “ABTS·+ scavenging activity, TEAC value” in test [5] is given as 0.004. Besides, the “% inhibition of CaE at 20 µM” value in test [6] is recorded as “n.а”. The “% Displacement of propidium iodide, 3 µM” value in test [8] (compound 3 µM) is 2.8 ± 0.2%. Moreover, in test [8] (compound 20 µM), the “% Displacement of propidium iodide, 20 µM” value was 6.0 ± 0.5%.
Take `Cc1c(C)c2c(c(C)c1O)CCC(C)(C(=O)O)O2` (stereo not drawn) [Trolox, 6-hydroxy-2,5,7,8-tetramethychroman-2-carboxylic acid, reference compound]: the “ORAC TE value” in test [1] came out at 1.0 µmol Trolox/ µmol comp. Further, in test [5], the “ABTS·+ scavenging activity, TEAC value” was determined as 1.0. The same compound registered an IC50 in test [5] (concentration reducing ABTS·+ by 50%) of 20.4 ± 1.7 µM.

One may read the IC50 as the midpoint of a concentration-inhibition curve.
